Source: US20190070081A1, “DEODORIZING COSMETIC COMPOSITION AND METHOD FOR PREPARING SAME” (EINS CO., LTD., priority 2015, published 2019)

Test system: skin tissue model
Experiment: Skin irritation test: MTT effective time (ET-50) viable cell assay on skin tissue model
Format: cell-based
Conditions: for % Viability: skin tissue
Method: The skin inflammation potential of a cleaning gel of product No. 1 (also known as Double. S Gel (Lot No. 15730A2); hereinafter, referred to as experimental product)) was evaluated using commercially available MTT effective time (ET-50) live cell experiment test and a skin tissue model.
The experiments performed at the Life Science Institute (BioScience Laboratories, Inc.) began on Sep. 2, 2015 and were completed on Sep. 4, 2015. One deviation in SOP generated during the experiments is shown in Tables 1 to 7 below, the protocols and/or SOP deviation recording formats (form number: 99-QA-004) of FIGS. 1 and 2. […] The skin tissue samples were exposed to the experimental product for 1 hour, 4 hours, or 24 hours.
The experimental product was tested undiluted, as provided by the sponsor. Three untreated negative control dermal tissue specimens were exposed for 24 hours.
The first tissue specimen, the second tissue specimen, and the third tissue specimen were exposed to 1.0% Triton X-100 (Lot No. 082615BBA) as a positive control for 1, 4, and 24 hours, respectively.
At the same time as the experimental procedure, MTT control was evaluated, and the evaluation was regarded as a result of direct reduction of the MTT product. […] During the experimental procedure, the frozen tissue was exposed to the experimental product to determine whether the experimental product was effectively washed from tissue.
The absorbance of the specimens was determined using a VERSA Max™ Tunable Microplate Reader (with SOFTmax® PRO Software) set to 570 nm with several […] aliquots of isopropyl alcohol.
Absorbance values were converted into the probabilistic feasibility of tissue culture by SOFTmax® PRO Software. These values were expressed as time-dependent by SOFTmax® PRO Software, and then ET-50 was determined by interpolation. ET-50 is an estimated time when the probabilistic feasibility of tissues falls to 50%.

Triton X-100 [Positive Control]
Irritancy Classification (Expected In-Vivo Irritancy) (from MTT ET-50): Moderate to Mild Irritation
% Viability (1 hour exposure): 66.51%
% Viability (4 hours exposure): 78.40%
% Viability (24 hours exposure): 6.06%
MTT ET-50 (tested undiluted, skin tissue exposed 1, 4, 24 hours, time at which viability falls to 50%, by interpolation): 4.65 h
